Data taken from US9226500B2, “Pesticidal compositions and processes related thereto” (Dow AgroSciences LLC, priority 2012, dated 2016).

How the values were obtained:
[1] = system: Beet Armyworm (Spodoptera exigua); experiment: Bioassay on Beet Armyworm (BAW), 128-well diet tray assay; format: in vivo; conditions: for pest or weed control at 50 µg/cm2, 50 µg/cm2: Spodoptera exigua, 168 h, percent mortality of second instar larvae, 50 μg/cm^2 on artificial diet, five to seven days, 25° C., read-out: BAW Rating; for BAW Rating: Table 3, Assays Results Part 1
[2] = system: Cabbage Looper (Trichoplusia ni); experiment: Bioassay on Cabbage Looper (CL), 128-well diet tray assay; format: in vivo; conditions: 168 h, percent mortality of second instar larvae, 50 μg/cm^2 on artificial diet, five to seven days, 25° C., read-out: CL Rating
Protocol: Certain molecules disclosed in this document were tested against BAW, CEW and CL using procedures described in the following examples. In the reporting of the results, the “BAW & CEW & CL Rating Table” was used (See Table Section).
Bioassays on CL (Trichoplusia ni)
Bioassays on CL were conducted using a 128-well diet tray assay. One to five second instar CL larvae were placed in each well (3 mL) of the diet tray that had been previously filled with 1 mL of artificial diet to which 50 μg/cm^2 of the test compound (dissolved in 50 μL of 90:10 acetone-water mixture) had been applied (to each of eight wells) and then allowed to dry. Trays were covered with a clear self-adhesive cover, and held at 25° C., 14:10 light-dark for five to seven days. Percent mortality was recorded for the larvae in each well; activity in the eight wells was then averaged.
“Table 4: Assay Results Part 2” (See Table Section).

Compound	pest or weed control at 50 µg/cm2, 50 µg/cm2 [1] [%]	pest or weed control at 50 µg/cm2, 50 µg/cm2 [2] [%]	BAW Rating [1]
CCC(NC(=O)c1ccc(/C=C/C(c2cc(Cl)c(Cl)c(Cl)c2)C(F)(F)F)cc1Br)C(=O)NCC(F)(F)F (stereo not drawn) [Compound F8A]	50 to 100	50 to 100	–
Cc1cc(/C=C/C(c2cc(Br)cc(Br)c2)C(F)(F)F)ccc1C(=O)N[C@H](C)C(=O)NCC(F)(F)F (stereo partly drawn) [Compound F17]	50 to 100	50 to 100	–
Cc1cc(/C=C/C(c2cc(Cl)c(Cl)c(Cl)c2)C(F)(F)F)ccc1C(=O)N[C@@H](C)C(=O)NCC(F)(F)F (stereo partly drawn) [Compound F9]	50 to 100	50 to 100	–
CC[C@H](NC(=O)c1ccc(/C=C/C(c2cc(Cl)c(Cl)c(Cl)c2)C(F)(F)F)cc1Br)C(=O)NCC(F)(F)F (stereo partly drawn) [Compound F8]	50 to 100	50 to 100	–
CC[C@H](NC(=O)c1ccc(/C=C/C(c2cc(Cl)c(Cl)c(Cl)c2)C(F)(F)F)cc1Cl)C(=O)NCC(F)(F)F (stereo partly drawn) [Compound F23]	–	50 to 100	–
Cc1cc(/C=C/C(c2cc(Cl)c(Cl)c(Cl)c2)C(F)(F)F)ccc1C(=O)NC(C)(C)C(=O)NCC(F)(F)F (stereo not drawn) [Compound F3]	50 to 100	50 to 100	–
Cc1cc(/C=C/C(c2cc(Cl)c(Cl)c(Cl)c2)C(F)(F)F)ccc1C(=O)NC(C)(C)C(=S)NCC(F)(F)F (stereo not drawn) [Compound F29]	50 to 100	50 to 100	–
C[C@@H](NC(=O)c1ccc(/C=C/[C@@H](c2cc(Cl)c(Cl)c(Cl)c2)C(F)(F)F)cc1C(F)(F)F)C(=O)NCC(F)(F)F [Compound F20B, N—((R)-1-Oxo-1-((2,2,2-trifluoroethyl)amino)propan-2-yl)-4-((E)-4,4,4-trifluoro-3-(3,4,5-trichlorophenyl)but-1-en-1-yl)-2-(trifluoromethyl)benzamide]	50 to 100	50 to 100	–
C[C@@H](NC(=O)c1ccc(/C=C/C(c2cc(Cl)c(Cl)c(Cl)c2)C(F)(F)F)cc1Br)C(=O)NCC(F)(F)F (stereo partly drawn) [Compound F6]	50 to 100	50 to 100	–
CC(C)(NC(=O)c1ccc(/C=C/C(c2cc(Cl)c(Cl)c(Cl)c2)C(F)(F)F)cc1C(F)(F)F)C(=O)NCC(F)(F)F (stereo not drawn) [Compound F4]	50 to 100	50 to 100	–
Cc1cc(/C=C/C(c2cc(Cl)c(Cl)c(Cl)c2)C(F)(F)F)ccc1C(=O)N[C@H](C)C(=S)NCC(F)(F)F (stereo partly drawn) [Compound F26]	50 to 100	50 to 100	–
C[C@@H](NC(=O)c1ccc(/C=C/C(c2cc(Cl)c(Cl)c(Cl)c2)C(F)(F)F)cc1Cl)C(=O)NCC(F)(F)F (stereo partly drawn) [Compound F25]	50 to 100	50 to 100	–
C[C@@H](NC(=O)c1ccc(/C=C/C(c2cc(Br)cc(Br)c2)C(F)(F)F)cc1Br)C(=O)NCC(F)(F)F (stereo partly drawn) [Compound F19]	50 to 100	50 to 100	–
CC[C@H](NC(=O)c1ccc(/C=C/C(c2cc(Cl)c(Cl)c(Cl)c2)C(F)(F)F)cc1C(F)(F)F)C(=O)NCC(F)(F)F (stereo partly drawn) [Compound F16]	50 to 100	50 to 100	–
CC(C)(NC(=O)c1ccc(/C=C/C(c2cc(Cl)c(Cl)c(Cl)c2)C(F)(F)F)cc1Cl)C(=O)NCC(F)(F)F (stereo not drawn) [Compound F2]	50 to 100	50 to 100	–
C[C@@H](NC(=O)c1ccc(/C=C/C(c2cc(Cl)c(Cl)c(Cl)c2)C(F)(F)F)cc1Cl)C(=S)NCC(F)(F)F (stereo partly drawn) [Compound F30]	50 to 100	50 to 100	–
C[C@H](NC(=O)c1ccc(/C=C/C(c2cc(Cl)c(Cl)c(Cl)c2)C(F)(F)F)cc1C(F)(F)F)C(=O)NCC(F)(F)F (stereo partly drawn) [Compound F18]	50 to 100	50 to 100	–
C[C@@H](NC(=O)c1ccc(/C=C/C(c2cc(Cl)c(Cl)c(Cl)c2)C(F)(F)F)cc1Br)C(=S)NCC(F)(F)F (stereo partly drawn) [Compound F27]	50 to 100	50 to 100	–
C[C@@H](NC(=O)c1ccc(/C=C/C(c2cc(F)cc(C(F)(F)F)c2)C(F)(F)F)cc1Br)C(=O)NCC(F)(F)F (stereo partly drawn) [Compound F24]	50 to 100	50 to 100	–
CCC(NC(=O)c1ccc(/C=C/C(c2cc(Cl)c(Cl)c(Cl)c2)C(F)(F)F)cc1Cl)C(=O)NCC(F)(F)F (stereo not drawn) [Compound F23A]	50 to 100	50 to 100	–
C[C@@H](NC(=O)c1ccc(/C=C/C(c2cc(Br)cc(Br)c2)C(F)(F)F)cc1C(F)(F)F)C(=O)NCC(F)(F)F (stereo partly drawn) [Compound F21]	50 to 100	50 to 100	–
O=C(NC1CCCc2cc(/C=C/C(c3cc(Cl)c(Cl)c(Cl)c3)C(F)(F)F)ccc21)C1CC1 (stereo not drawn) [BC7]	–	–	A (50-100)
FC(F)(F)CNC(=S)CNC(=S)c1ccc(/C=C/C(c2cc(Cl)c(Cl)c(Cl)c2)C(F)(F)F)cc1Br (stereo not drawn) [AC90, (E)-2-Bromo-N-(2-thioxo-2-((2,2,2-trifluoroethyl)amino)ethyl)-4-(4,4,4-trifluoro-3-(3,4,5-trichlorophenyl)but-1-en-1-yl)benzothioamide]	–	–	A (50-100)

Compound	pest or weed control at 50 µg/cm2, 50 µg/cm2 [1] [%]	pest or weed control at 50 µg/cm2, 50 µg/cm2 [2] [%]	BAW Rating [1]
Cc1cc(/C=C/C(c2cc(Cl)c(Cl)c(Cl)c2)C(F)(F)F)ccc1C(=O)NCC(=O)NCC(F)(F)F (stereo not drawn) [AC78]	–	–	A (50-100)
O=C(NCc1ccc(Cl)nc1)c1ccc(/C=C/C(c2cc(Cl)c(F)c(Cl)c2)C(F)(F)F)cc1F (stereo not drawn) [AC65]	–	–	A (50-100)
O=C(CC(F)(F)F)NC1CCCc2cc(/C=C/C(c3cc(Cl)c(Cl)c(Cl)c3)C(F)(F)F)ccc21 (stereo not drawn) [BC5]	–	–	A (50-100)
Cc1cc(/C=C/C(c2cc(Cl)cc(Cl)c2)C(F)(F)F)ccc1C(=O)NNc1ccccc1F (stereo not drawn) [AC17]	–	–	A (50-100)
O=C(CC(F)(F)F)NCc1ccc(/C=C/C(c2cc(Cl)c(Cl)c(Cl)c2)C(F)(F)F)cc1F (stereo not drawn) [CC27]	–	–	A (50-100)
FC(F)(F)C(/C=C/c1ccc(-n2cncn2)cc1)c1cc(Cl)cc(Cl)c1 (stereo not drawn) [DC1, (E)-1-(4-(3-(3,5-Dichlorophenyl)-4,4,4-trifluorobut-1-en-1-yl)phenyl)-1H-1,2,4-triazole]	–	–	A (50-100)
CCOC(=O)c1cc(/C=C/C(c2cc(Cl)cc(Cl)c2)C(F)(F)F)ccc1-n1cncn1 (stereo not drawn) [DC60]	–	–	A (50-100)
CCNC(=O)NCc1ccc(/C=C/C(c2cc(Cl)cc(Cl)c2)C(F)(F)F)cc1Cl (stereo not drawn) [CC31, (E)-1-(2-Chloro-4-(3-(3,5-dichlorophenyl)-4,4,4-trifluorobut-1-en-1-yl)benzyl)-3-ethylurea]	–	–	B (More than 0-Less than 50)
O=C(NCc1ccc(/C=C/C(c2cc(Cl)cc(Cl)c2)C(F)(F)F)cc1Cl)C1CC1 (stereo not drawn) [CC8]	–	–	A (50-100)
CN1CCC(NC(=O)c2ccc(/C=C/C(c3cc(Cl)c(Cl)c(Cl)c3)C(F)(F)F)cc2Br)CC1 (stereo not drawn) [AC106, (E)-2-Bromo-N-(1-methylpiperidin-4-yl)-4-(4,4,4-trifluoro-3-(3,4,5-trichlorophenyl)but-1-en-1-yl)benzamide]	–	–	A (50-100)
C=CCNC(=O)CNC(=O)c1ccc(/C=C/C(c2cc(Cl)c(Cl)c(Cl)c2)C(F)(F)F)cc1Br (stereo not drawn) [AC111]	–	–	A (50-100)
O=C(NCc1ccc(/C=C/C(c2cc(Cl)c(Cl)c(Cl)c2)C(F)(F)F)cc1Br)C1CC1 (stereo not drawn) [CC26]	–	–	A (50-100)
O=C(NC1CCN(C(=O)CC(F)(F)F)CC1)c1ccc(/C=C/C(c2cc(Cl)c(Cl)c(Cl)c2)C(F)(F)F)cc1Br (stereo not drawn) [AC104, (E)-2-Bromo-4-(4,4,4-trifluoro-3-(3,4,5-trichlorophenyl)but-1-en-1-yl)-N-(1-(3,3,3-trifluoropropanoyl)piperidin-4-yl)benzamide]	–	–	A (50-100)
CN(C)C(=O)NCc1ccc(/C=C/C(c2cc(Cl)c(Cl)c(Cl)c2)C(F)(F)F)cc1Cl (stereo not drawn) [CC36, (E)-3-(2-Chloro-4-(4,4,4-trifluoro-3-(3,4,5-trichlorophenyl)but-1-en-1-yl)benzyl)-1,1-dimethylurea]	–	–	A (50-100)
Cc1cc(/C=C/C(c2cc(Cl)c(Cl)c(Cl)c2)C(F)(F)F)ccc1C(=O)NC1CSC1 (stereo not drawn) [AC23]	–	–	A (50-100)
O=C(NC1CS(=O)(=O)C1)c1ccc(/C=C/C(c2cc(Cl)c(Cl)c(Cl)c2)C(F)(F)F)cc1Cl (stereo not drawn) [AC30]	–	–	A (50-100)
N#Cc1cc(/C=C/C(c2cc(Cl)cc(C(F)(F)F)c2)C(F)(F)F)ccc1-n1cncn1 (stereo not drawn) [DC33]	–	–	A (50-100)
Cc1cc(/C=C/C(c2cc(Cl)cc(Cl)c2)C(F)(F)F)ccc1C(=O)NCc1ccoc1 (stereo not drawn) [AC20]	–	–	A (50-100)
Cc1cc(/C=C/C(c2cc(Cl)cc(Cl)c2)C(F)(F)F)ccc1C(=O)NCc1cnc(Cl)s1 (stereo not drawn) [AC15]	–	–	A (50-100)
Cc1cc(/C=C/C(c2cc(Cl)cc(Cl)c2)C(F)(F)F)ccc1C(=O)NC1CSC1 (stereo not drawn) [AC10]	–	–	A (50-100)
Cc1cc(/C=C/C(c2cc(Cl)c(F)c(Cl)c2)C(F)(F)F)ccc1C(=O)NC1CCOCC1 (stereo not drawn) [AC52]	–	–	A (50-100)
Cc1cc(/C=C/C(c2cc(Cl)c(Cl)c(Cl)c2)C(F)(F)F)ccc1-n1cncn1 (stereo not drawn) [DC63]	–	–	A (50-100)
FC(F)(F)C(/C=C/c1ccc(-n2cncn2)cc1Cl)c1cc(Cl)cc(Cl)c1 (stereo not drawn) [DC67]	–	–	A (50-100)
